“And” between values parts separate entries of the source, which are not always exact repeats. Identical values can stand only once.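 Exposure lasted 48 hours, with cells grown in 96-well plates and compounds tested at five concentrations. The concentration for 50% growth inhibition is given as GI50. TGI: concentration producing complete growth inhibition.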 Where a SMILES comes first, the peptide text is derived from it. [ ]: non-standard residue; d: D form. The star is where a group is joined. ξ: configuration not given here. NMeN = CN[C@@H](CC(N)=O)C(=O)O; NMeV = CN[C@H](C(=O)O)C(C)C; ξNMeV = CNC(C(=O)O)C(C)C; Boc = CC(C)(C)OC(=O)*; ξNMeA = CNC(C)C(=O)O

Among the test systems are UACC-62 melanoma; SW-620 colon; EKVX NSCLC; HCT-15 colon; RPMI-8226 leukemia; SK-MEL-28 melanoma; OVCAR-4 ovarian; NCI-H460 lung; K-562 leukemia; SK-OV-3 ovarian.
Common to all, as to experiment: NCI-60 cell line screen, 48 h

`COC(=O)C12C3C4C5C3(C#N)C1C5(C(=O)OC)C42C(=O)N(C(C)C)C(C)C` (stereo unspecified): the TGI is over 100 µM in the test on UACC-62 melanoma; over 65.3 µM in the test with SW-620 colon; over 100 µM in the test on EKVX NSCLC; over 60.4 µM with HCT-15 colon; over 69.3 µM with RPMI-8226 leukemia; over 100 µM in the test on SK-MEL-28 melanoma. Besides, the TGI in the test on OVCAR-4 ovarian was over 100 µM; with NCI-H460 lung it was over 100 µM; in the test with K-562 leukemia, over 73.8 µM; with SK-OV-3 ovarian, over 100 µM.

With `NC1CCCCC1N.O=S(=O)([O-])CCCN1CCOCC1.O=S(=O)([O-])CCCN1CCOCC1.[Pt+4]`, the GI50 in the test on UACC-62 melanoma was 11.8 µM; with SW-620 colon, 1.32 µM; with EKVX NSCLC, over 100 µM; with HCT-15 colon it was 8.4 µM; with RPMI-8226 leukemia, 1.05 µM; in the test on SK-MEL-28 melanoma, 5.32 µM. Also, the GI50 with OVCAR-4 ovarian is over 29.7 µM; with NCI-H460 lung, 3.54 µM; with K-562 leukemia, 7.29 µM; in the test on SK-OV-3 ovarian it was over 100 µM. The TGI in the test with UACC-62 melanoma was over 83.1 µM; with SW-620 colon, 17.1 µM; in the test with EKVX NSCLC, over 100 µM; in the test on HCT-15 colon, over 56.6 µM; in the test on RPMI-8226 leukemia, over 51.4 µM; in the test with SK-MEL-28 melanoma it was 48.3 µM. Moreover, the TGI is over 100 µM in the test on OVCAR-4 ovarian, over 100 µM in the test with NCI-H460 lung, 30.5 µM in the test with K-562 leukemia and over 100 µM with SK-OV-3 ovarian.

As to `Cc1cc(I)cc(CN(C)CCN2CCCC2)c1O`, the GI50 in the test with UACC-62 melanoma is 17.2 µM; in the test with SW-620 colon it was 23.2 µM; in the test with EKVX NSCLC, 41.2 µM; in the test on HCT-15 colon, 24.4 µM; with RPMI-8226 leukemia, 19.2 µM; in the test with SK-MEL-28 melanoma, 17.7 µM. Also, the GI50 was 38.7 µM in the test on OVCAR-4 ovarian, 28.3 µM with NCI-H460 lung, 8.53 µM with K-562 leukemia and 37.9 µM with SK-OV-3 ovarian. Besides, the TGI in the test with UACC-62 melanoma was 33.2 µM; in the test with SW-620 colon, 60 µM; in the test on EKVX NSCLC, over 100 µM; with HCT-15 colon it was 73.7 µM; in the test on RPMI-8226 leukemia, 46.2 µM; in the test with SK-MEL-28 melanoma, 35.4 µM. Also, the TGI with OVCAR-4 ovarian is over 100 µM; in the test with NCI-H460 lung, 85.4 µM; in the test on K-562 leukemia, 26.4 µM; in the test on SK-OV-3 ovarian, over 100 µM.

`Cc1ccc(C(=O)C(Cl)C(Cl)c2ccc(C)cc2)cc1` (stereo unspecified): the TGI with UACC-62 melanoma is 10.9 µM; in the test on SW-620 colon it was 6.32 µM; in the test with EKVX NSCLC, 19.5 µM; in the test with HCT-15 colon, 3.73 µM; in the test on RPMI-8226 leukemia it was 7.25 µM; in the test on SK-MEL-28 melanoma, 8.68 µM. The TGI with OVCAR-4 ovarian came out at 5.04 µM; in the test with NCI-H460 lung, 22.3 µM; in the test with K-562 leukemia, 7.15 µM; in the test on SK-OV-3 ovarian it was 30.7 µM.

For `C[C@]12CC[C@H](OCCC#N)CC1=CC[C@@H]1C2CC[C@]2(C)/C(=N/OCCC#N)CCC12` (stereo partly specified), the TGI in the test on UACC-62 melanoma, with SW-620 colon, with EKVX NSCLC, in the test with HCT-15 colon, in the test on RPMI-8226 leukemia and with SK-MEL-28 melanoma was over 100 µM in each case. In addition, the TGI with OVCAR-4 ovarian was 97.7 µM; in the test with NCI-H460 lung, over 100 µM; with K-562 leukemia it was over 100 µM; in the test on SK-OV-3 ovarian, over 100 µM.

For the compound `C=C[C@H]1CCC/C=C/[C@@H]2C[C@H](O)C[C@H]2[C@H](O)/C=C/C(=O)O1`, the GI50 in the test with UACC-62 melanoma was 0.0344 µM; with SW-620 colon, 0.0275 µM; with EKVX NSCLC, 0.0395 µM; in the test with HCT-15 colon it was 0.0325 µM; in the test on RPMI-8226 leukemia, 0.045 µM; in the test on SK-MEL-28 melanoma it was 0.0213 µM. For the same compound, the GI50 in the test on OVCAR-4 ovarian was 0.0303 µM; with NCI-H460 lung, 0.0422 µM; in the test with K-562 leukemia, 0.0478 µM; in the test on SK-OV-3 ovarian, 0.0406 µM. Further, the TGI with UACC-62 melanoma was over 100 µM; with SW-620 colon, 0.0949 µM; in the test with EKVX NSCLC it was over 100 µM; in the test with HCT-15 colon, over 34.7 µM; in the test with RPMI-8226 leukemia it was over 100 µM; in the test with SK-MEL-28 melanoma, 0.404 µM. Also, the TGI with OVCAR-4 ovarian was over 100 µM; in the test with NCI-H460 lung it was over 100 µM; with K-562 leukemia, over 100 µM; in the test with SK-OV-3 ovarian it was over 93.5 µM.

In the case of `NC(=O)c1ccc2c(-c3ccnc(NCCCO)n3)c(-c3ccc(F)cc3)nn2c1`, the GI50 in the test on UACC-62 melanoma, in the test with SW-620 colon, with EKVX NSCLC, in the test with HCT-15 colon, with RPMI-8226 leukemia and in the test on SK-MEL-28 melanoma was over 25 µM throughout. In addition, the GI50 is over 25 µM in the test on OVCAR-4 ovarian, over 25 µM in the test on NCI-H460 lung, over 25 µM with K-562 leukemia and over 24.2 µM in the test on SK-OV-3 ovarian. In addition, the TGI in the test with UACC-62 melanoma, with SW-620 colon, with EKVX NSCLC, with HCT-15 colon, in the test with RPMI-8226 leukemia and with SK-MEL-28 melanoma was over 25 µM each time. Moreover, the TGI in the test on OVCAR-4 ovarian, in the test with NCI-H460 lung, in the test with K-562 leukemia and with SK-OV-3 ovarian was over 25 µM each time.

For the compound `Cc1ccc(-c2nc(N)nc3c2nnn3Cc2cccc(CO[C@H]3CCOC3)n2)o1`, the GI50 in the test with UACC-62 melanoma, in the test on SW-620 colon, in the test on EKVX NSCLC, with HCT-15 colon, in the test on RPMI-8226 leukemia and with SK-MEL-28 melanoma was over 100 µM in each case. Further, the GI50 is 66.5 µM with OVCAR-4 ovarian, over 100 µM in the test with NCI-H460 lung, over 100 µM with K-562 leukemia and over 100 µM in the test with SK-OV-3 ovarian. Moreover, the TGI in the test with UACC-62 melanoma, in the test with SW-620 colon, in the test with EKVX NSCLC, with HCT-15 colon, in the test on RPMI-8226 leukemia and with SK-MEL-28 melanoma was over 100 µM throughout. Besides, the TGI in the test on OVCAR-4 ovarian, with NCI-H460 lung, with K-562 leukemia and in the test with SK-OV-3 ovarian was over 100 µM each time.

For the compound `CC[Si](CC)(CC)OC[C@]1([C@@H]2COC(C)(C)O2)CC=CC(=O)O1`, the GI50 is 25.6 µM in the test with UACC-62 melanoma; 39.1 µM with SW-620 colon; 31.5 µM in the test on EKVX NSCLC; 35.7 µM with HCT-15 colon; 18.3 µM with RPMI-8226 leukemia; 19.8 µM in the test with SK-MEL-28 melanoma. Also, the GI50 with OVCAR-4 ovarian is 85.8 µM; with NCI-H460 lung, 33.9 µM; in the test on K-562 leukemia, 34.6 µM; in the test with SK-OV-3 ovarian, 59.9 µM. Besides, the TGI with UACC-62 melanoma is over 100 µM; in the test with SW-620 colon, over 100 µM; with EKVX NSCLC, over 100 µM; in the test with HCT-15 colon it was over 100 µM; in the test on RPMI-8226 leukemia, 65.6 µM; in the test on SK-MEL-28 melanoma it was 85.3 µM. Further, the TGI in the test on OVCAR-4 ovarian, in the test on NCI-H460 lung, with K-562 leukemia and in the test with SK-OV-3 ovarian was over 100 µM throughout.

Take `O=C(N/N=C/c1ccccc1Cl)c1ccccc1Nc1ccnc(C(F)(F)F)c1`: the GI50 in the test on UACC-62 melanoma was 0.976 µM; in the test with SW-620 colon it was 1.53 µM; in the test on EKVX NSCLC it was 1.65 µM; in the test on HCT-15 colon, 0.43 µM; in the test on RPMI-8226 leukemia, 0.47 µM; in the test on SK-MEL-28 melanoma, 2.39 µM. Further, the GI50 in the test on OVCAR-4 ovarian is 1.32 µM; in the test on NCI-H460 lung it was 0.768 µM; in the test on K-562 leukemia, 2.16 µM; with SK-OV-3 ovarian, 1.43 µM. For the same compound, the TGI with UACC-62 melanoma stood at 3.72 µM; in the test with SW-620 colon it was 14.5 µM; with EKVX NSCLC, 5.94 µM; in the test on HCT-15 colon, 3.95 µM; with RPMI-8226 leukemia it was 2.74 µM; in the test with SK-MEL-28 melanoma, 27.6 µM. The TGI was over 100 µM in the test on OVCAR-4 ovarian, 2.38 µM in the test on NCI-H460 lung and 5.31 µM in the test with SK-OV-3 ovarian.

Take `Cc1cccc(C)c1NC(=O)CCc1nnc2s/c(=C\c3ccc(Cl)cc3)c(=O)n12`: the TGI is over 100 µM with UACC-62 melanoma; 40.2 µM with SW-620 colon; over 100 µM in the test with EKVX NSCLC; 36.2 µM in the test with HCT-15 colon; over 100 µM in the test on RPMI-8226 leukemia; over 100 µM with SK-MEL-28 melanoma. The TGI with OVCAR-4 ovarian, with NCI-H460 lung, in the test with K-562 leukemia and with SK-OV-3 ovarian was over 100 µM each time.

For the compound `COC(=O)C(C)N(C)C(=O)[C@H](CC(N)=O)N(C)C(=O)[C@@H]1CCCN1C(=O)[C@H](C(C)C)N(C)C(=O)C(C(C)C)N(C)C(=O)[C@@H](NC(=O)OC(C)(C)C)C(C)C` (stereo partly specified) (Boc-V[ξNMeV][NMeV]P[NMeN][ξNMeA]-OMe), the GI50 in the test on UACC-62 melanoma is over 100 µM; with SW-620 colon it was 12.7 µM; in the test with EKVX NSCLC, 16.9 µM; in the test with SK-MEL-28 melanoma it was over 100 µM; in the test with NCI-H460 lung it was 17.9 µM; in the test on K-562 leukemia, over 100 µM. Moreover, the GI50 in the test with SK-OV-3 ovarian is over 100 µM. The TGI is over 100 µM with UACC-62 melanoma; > 50 µM and 26.7 µM with SW-620 colon; > 50 µM and 35.3 µM with EKVX NSCLC; over 100 µM with HCT-15 colon; over 100 µM with RPMI-8226 leukemia; over 100 µM in the test on SK-MEL-28 melanoma. Besides, the TGI with OVCAR-4 ovarian is over 100 µM; with NCI-H460 lung it was > 50 µM and 32.7 µM; in the test on K-562 leukemia, 50 µM and > 100 µM; in the test with SK-OV-3 ovarian, over 100 µM.

Consider `C=CCN(CC=C)C(=O)c1cc(C)nc2c1c(=O)n(-c1ccccc1)c(=O)n2CC(O)CN1CCN(c2ncccn2)CC1` (stereo unspecified), for which the GI50 was over 100 µM in the test with UACC-62 melanoma; over 100 µM in the test on SW-620 colon; over 100 µM in the test on EKVX NSCLC; over 100 µM with HCT-15 colon; over 100 µM in the test with RPMI-8226 leukemia; 60.9 µM with SK-MEL-28 melanoma. The GI50 in the test with OVCAR-4 ovarian is 80.3 µM; in the test with NCI-H460 lung it was 26.7 µM; in the test on K-562 leukemia, over 100 µM; in the test on SK-OV-3 ovarian, over 100 µM. For the same compound, the TGI with UACC-62 melanoma, with SW-620 colon, in the test with EKVX NSCLC, in the test with HCT-15 colon, in the test with RPMI-8226 leukemia and in the test on SK-MEL-28 melanoma was over 100 µM throughout. Further, the TGI with OVCAR-4 ovarian, with NCI-H460 lung, in the test on K-562 leukemia and in the test on SK-OV-3 ovarian was over 100 µM throughout.

Values taken from PubChem BioAssay (NCI).
